US12391737B2, “Soluble NPY2 receptor agonists” (Boehringer Ingelheim International GmbH, priority 2020, dated 2025)
Where two headings read alike, the source gives them in different places. *1 amine or outer side, *2 acyl side, *3 side chain or, on linkers, in order; H or OH if unused. Where a SMILES comes first, the peptide text is derived from it. Side-chain parts run from the residue outwards. The star is where a group is joined. C18 diacid = O=C(O)CCCCCCCCCCCCCCCCC(=O)*; γGlu = O=C(O)[C@H](CCC(=O)[*:2])N[*:1]; Isovaleryl = CC(C)CC(=O)*; Ahx = NCCCCCC(=O)O

Legend:
Solubility determination = settings: for Sol6: pH 6; for Sol7: pH 7
Summary of the method: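 Solubility is derived from the ratio of reversed-phase peak areas, filtered sample over a control dissolved at 1 mg/ml in 50% acetonitrile. Peptides are agitated for 2 hours at room temperature in 0.1 M sodium diphosphate at pH 6.4 or 7.0, aiming at 10 mg/ml.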

[1] = molecular target: T1, human NPY4 receptor (hY4R) (Homo sapiens, UniProt P50391); experiment: HTRF cAMP Gi assay, hY4R; assay type: cell-based; settings: CHO-K1 cells
T1 construct: expressed in transfected cells; host or cells: CHO-K1
T1 sequence (P50391 whole entry): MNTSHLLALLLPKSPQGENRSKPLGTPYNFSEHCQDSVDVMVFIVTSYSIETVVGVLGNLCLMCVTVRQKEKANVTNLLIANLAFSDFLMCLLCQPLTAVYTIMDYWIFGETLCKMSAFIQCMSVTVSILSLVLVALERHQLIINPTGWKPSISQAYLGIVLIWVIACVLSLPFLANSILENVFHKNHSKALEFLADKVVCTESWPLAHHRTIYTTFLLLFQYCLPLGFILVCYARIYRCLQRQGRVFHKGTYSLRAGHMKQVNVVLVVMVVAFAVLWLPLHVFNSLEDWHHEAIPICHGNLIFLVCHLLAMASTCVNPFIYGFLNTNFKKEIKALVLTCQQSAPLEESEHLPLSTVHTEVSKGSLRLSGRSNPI
Experimental: Briefly, the production of intracellular cAMP will generate a competition between unlabeled cAMP and exogenously added d2-cAMP for anti-cAMP antibodies conjugated to cryptate. CHO-K1 cells stably expressing the human NPY1, NPY2, NPY4 and NPY5 receptors were used with the cells brought to life from a frozen stock immediately before assay performance. 2000 cells per well were applied for all four NPY receptor subtype assays. A 384-well format was used applying a total volume of 20 μl using 5 μl cells, 2.5 μl peptide agonist, 2.5 μl forskolin and 5 μl of each of the fluorophores. […] Concentration-response evaluation of compounds was performed with 11 concentrations of agonist peptides (covering 3 decades). EC50 values were calculated by nonlinear regression using sigmoid concentration-response with variable slope.

[2] = molecular target: T2, human NPY1 receptor (hY1R) (Homo sapiens, UniProt P25929); experiment: HTRF cAMP Gi assay, hY1R; assay type: cell-based; settings: CHO-K1 cells
T2 construct: expressed in transfected cells; host or cells: CHO-K1
T2 sequence (P25929 1-384): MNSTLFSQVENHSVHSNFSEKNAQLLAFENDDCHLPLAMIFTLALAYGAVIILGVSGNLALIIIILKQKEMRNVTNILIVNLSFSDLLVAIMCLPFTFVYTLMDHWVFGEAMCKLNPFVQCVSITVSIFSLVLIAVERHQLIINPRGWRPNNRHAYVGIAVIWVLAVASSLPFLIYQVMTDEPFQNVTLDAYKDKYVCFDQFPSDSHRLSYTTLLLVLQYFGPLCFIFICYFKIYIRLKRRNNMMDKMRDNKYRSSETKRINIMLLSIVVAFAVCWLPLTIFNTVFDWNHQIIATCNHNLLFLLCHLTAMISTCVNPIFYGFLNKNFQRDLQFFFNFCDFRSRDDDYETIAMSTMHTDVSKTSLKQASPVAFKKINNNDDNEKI

[3] = molecular target: T3, Human Neuropeptide Y2 Receptor (Homo sapiens, UniProt P49146); experiment: Radioligand binding competition assay (RLB)
T3 construct: purchased CHEMICON HTS066M
T3 sequence (P49146 1-381): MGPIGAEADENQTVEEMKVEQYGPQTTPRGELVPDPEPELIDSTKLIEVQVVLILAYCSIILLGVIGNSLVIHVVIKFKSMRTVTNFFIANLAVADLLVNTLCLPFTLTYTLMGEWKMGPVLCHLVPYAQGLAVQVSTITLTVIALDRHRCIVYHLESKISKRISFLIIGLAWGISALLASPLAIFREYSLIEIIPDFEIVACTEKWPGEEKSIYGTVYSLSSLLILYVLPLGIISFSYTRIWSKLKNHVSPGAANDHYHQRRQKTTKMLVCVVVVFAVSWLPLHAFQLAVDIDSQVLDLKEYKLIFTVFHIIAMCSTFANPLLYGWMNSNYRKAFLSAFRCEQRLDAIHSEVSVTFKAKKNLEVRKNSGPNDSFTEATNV
Summary of the method: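 Competition binding used membranes expressing the receptor (0.5 μg protein/well) in 50 mM HEPES, 5 mM MgCl2, 1 mM CaCl2, pH 7.4 with 0.2% ovalbumin, incubated 2 h at room temperature with shaking. Bound radioligand was collected by filtration onto PEI-soaked GF/C filters and counted; IC50 from nonlinear sigmoidal fits.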

[4] = molecular target: T4, human NPY5 receptor (hY5R) (Homo sapiens, UniProt Q15761); experiment: HTRF cAMP Gi assay, hY5R
T4 sequence (Q15761 1-445): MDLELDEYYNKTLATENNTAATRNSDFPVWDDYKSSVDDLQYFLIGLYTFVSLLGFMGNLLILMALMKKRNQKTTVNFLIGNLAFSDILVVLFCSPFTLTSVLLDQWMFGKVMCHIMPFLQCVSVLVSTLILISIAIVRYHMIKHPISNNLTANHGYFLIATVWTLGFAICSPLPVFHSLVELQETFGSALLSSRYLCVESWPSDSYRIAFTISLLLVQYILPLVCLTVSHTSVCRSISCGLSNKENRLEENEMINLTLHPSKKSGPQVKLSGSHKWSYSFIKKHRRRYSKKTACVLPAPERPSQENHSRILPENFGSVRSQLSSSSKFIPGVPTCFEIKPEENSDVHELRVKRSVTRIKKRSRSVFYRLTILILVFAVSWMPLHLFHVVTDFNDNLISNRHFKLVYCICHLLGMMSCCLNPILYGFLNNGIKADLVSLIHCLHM

[5] = Table 3, 125I-PYY(1-36) competition, read-out: Ki

Compound | Sol6 (Solubility determination) [mg/mL] | Sol7 (Solubility determination) [mg/mL] | EC50 [1] [nM] | EC50 [2] [nM] | Ki [3, 5] [nM] | EC50 [4] [nM] | Ki ([3]; Table 8, DMSO stock, read-out: hY2R RLB Ki (nM) DMSO) [nM]
CC[C@H](C)[C@H](NC(=O)[C@H](Cc1ccc(O)cc1)NC(=O)[C@H](Cc1ccc(O)cc1)NC(=O)[C@H](CCCNC(=N)N)NC(=O)[C@H](CCC(N)=O)NC(=O)[C@@H](NC(=O)[C@H](CCC(=O)O)NC(=O)[C@H](CCC(=O)O)NC(=O)[C@@H]1CCCN1C(=O)[C@H](CO)NC(=O)[C@H](C)NC(=O)[C@H](CC(=O)O)NC(=O)[C@H](C)NC(=O)[C@H](CCC(=O)O)NC(=O)[C@@H]1CCCN1C(=O)[C@H](CCCCNC(=O)CCCCCNC(=O)CC[C@H](NC(=O)CCCCCCCCCCCCCCCCC(=O)O)C(=O)O)NC(=O)[C@H](CCC(=O)O)NC(=O)[C@@H]1CCCN1C(=O)[C@H](C)NC(=O)CC(C)C)[C@@H](C)CC)C(=O)N[C@@H](CO)C(=O)N[C@@H](CC(C)C)C(=O)N[C@@H](CCCNC(=N)N)C(=O)N[C@@H](Cc1c[nH]cn1)C(=O)N[C@@H](Cc1ccc(O)cc1)C(=O)N[C@@H](Cc1ccc(O)cc1)C(=O)N[C@@H](CC(N)=O)C(=O)N[C@@H](Cc1c[nH]c2ccccc12)C(=O)N[C@@H](CC(C)C)C(=O)N[C@H](C(=O)N[C@@H](CCCNC(=N)N)C(=O)N[C@@H](CCC(N)=O)C(=O)N[C@@H](CCCNC(=N)N)C(=O)N[C@@H](Cc1ccc(O)cc1)C(N)=O)[C@@H](C)O [Compound 11, N{alpha-4}-(3-methylbutanoyl)-N{epsilon-7}-(6-[(4S)-4-carboxy-4-(17-carboxyheptadecanamido)butanamido]hexanoyl)[4A,7K,9E,10A,17I,18Q,22I,28Y,30W,31L]-hPYY(4-36)] (Isovaleryl-APEK([Ahx-γGlu-C18 diacid])PEADASPEEIQRYYISLRHYYNWLTRQRY-NH2) | 8.9 | 8.7 | > 5000 | > 5000 | 1.4 | > 5000 | –
CC[C@H](C)[C@H](NC(=O)[C@H](CCC(=O)O)NC(=O)[C@H](CCC(=O)O)NC(=O)[C@@H]1CCCN1C(=O)[C@H](CO)NC(=O)[C@H](C)NC(=O)[C@H](CC(=O)O)NC(=O)[C@H](CCC(=O)O)NC(=O)[C@H](CCC(=O)O)NC(=O)[C@@H]1CCCN1C(=O)[C@H](CCCCNC(=O)CCCCCNC(=O)CC[C@H](NC(=O)CCCCCCCCCCCCCCCCC(=O)O)C(=O)O)NC(=O)[C@H](C)NC(=O)[C@@H]1CCCN1C(=O)[C@H](C)NC(=O)CC(C)C)C(=O)N[C@@H](CCC(N)=O)C(=O)N[C@@H](CCCNC(=N)N)C(=O)N[C@@H](Cc1ccc(O)cc1)C(=O)N[C@@H](Cc1ccc(O)cc1)C(=O)N[C@H](C(=O)N[C@@H](CO)C(=O)N[C@@H](CC(C)C)C(=O)N[C@@H](CCCNC(=N)N)C(=O)N[C@@H](Cc1c[nH]cn1)C(=O)N[C@@H](Cc1ccc(O)cc1)C(=O)N[C@@H](Cc1ccc(O)cc1)C(=O)N[C@@H](CC(N)=O)C(=O)N[C@@H](Cc1c[nH]c2ccccc12)C(=O)N[C@@H](CC(C)C)C(=O)N[C@H](C(=O)N[C@@H](CCCNC(=N)N)C(=O)N[C@@H](CCC(N)=O)C(=O)N[C@@H](CCCNC(=N)N)C(=O)N[C@@H](Cc1ccc(O)cc1)C(N)=O)[C@@H](C)O)C(C)C [Compound 63, N{alpha-4}-(3-methylbutanoyl)-N{epsilon-7}-(6-[(4S)-4-carboxy-4-(17-carboxyheptadecanamido)butanamido]hexanoyl)-[4A,6A,7K,9E,17I,18Q,22V,28Y,30W,31L]-hPYY(4-36)] | 10.0 | >10.0 | > 5000 | > 5000 | 0.93 | > 5000 | 6.6
